Measurements published in patent US7301033B2, “PPAR-activating compound” (Kowa Co., Ltd., priority 2005, dated 2007).

Tests used:
Type in all cases: cell-based
human PPARγ2 = target: T1, human PPARγ2 (Homo sapiens, UniProt P37231); test: Gal4-human PPARγ2 chimera luciferase transfection assay in COS cells; conditions: compound added at 1 μM, luciferase activity with rosiglitazone 1 μM given as 10.0, 16 hours
T1 construct: with 182nd to 505th amino acids of human PPARγ2; expressed in transfected cells; host or cells: COS cells (African green monkey kidney)
T1 sequence (P37231 182-505): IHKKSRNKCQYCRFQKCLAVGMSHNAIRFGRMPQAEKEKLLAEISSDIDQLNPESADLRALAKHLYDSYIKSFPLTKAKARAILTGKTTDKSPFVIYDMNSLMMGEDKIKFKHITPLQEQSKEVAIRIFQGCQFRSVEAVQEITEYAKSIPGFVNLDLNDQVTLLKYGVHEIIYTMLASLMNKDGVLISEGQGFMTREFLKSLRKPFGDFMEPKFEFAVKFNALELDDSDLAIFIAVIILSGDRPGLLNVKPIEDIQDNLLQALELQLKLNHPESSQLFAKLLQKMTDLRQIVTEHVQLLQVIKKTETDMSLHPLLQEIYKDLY
Description: (§1) The PPAR receptor-activating effect of the compound of the present invention represented by the formula (1) was measured by a method described below (Proc. Natl. Acad. Sci., 92, pp 7297-7301, 1995; Journal of Lipid Research, 40, pp 2099-2110, 1999; and Proc. Natl. Acad. Sci, 98, pp 5306-5311, 2001).
(§2) All the transfection assays were conducted using African green monkey kidney-derived cell line COS cells. The COS cells were cultured at 5% CO2 concentration using a DMEM medium containing 10% fetal bovine serum, glutamic acid, and an antibiotic as a culture solution.
(§3) Gal4-human PPARs chimeric constructs which were fused the DNA-binding region of yeast transcription factor Gal4 with the ligand-binding region of human PPARs were used as an expression vector. A chimera where 1st to 147th amino acids of the Gal4 transcription factor were fused with 166th to 467th amino acids of human PPARα, with 182nd to 505th amino acids of human PPARγ2, or with 137th to 441st amino acids of human PPARδ was used as the chimera for each isoform. A reporter vector used was firefly luciferase whose promoter region contains five Gal4 recognition sequences. The plasmids were transfected into the cells by a method using Lipofectamine. In addition, a β-galactosidase expression vector was used as an internal standard.
(§4) After the transfection into the cells, the medium was substituted with a DMEM medium (containing 0.2% serum) supplemented with the compound, in which the cells were then cultured for additional 16 hours. Thereafter, luciferase activity and β-galactosidase activity in the cell lysate were measured.
(§5) In the present experiment, dimethyl sulfoxide (DMSO) was used in the dissolution and dilution of the compound. When the cells were treated, the DMSO concentration in the DMEM medium (containing 0.2% serum) was adjusted to 0.1%.

human PPARδ = target: T2, human PPARδ (Homo sapiens, UniProt Q03181); test: Gal4-human PPARδ chimera luciferase transfection assay in COS cells; conditions: compound added at 1 μM, luciferase activity with GW501516 1 μM given as 10.0, 16 hours
T2 construct: with 137th to 441st amino acids of human PPARδ; expressed in transfected cells; host or cells: COS cells (African green monkey kidney)
T2 sequence (Q03181 137-441): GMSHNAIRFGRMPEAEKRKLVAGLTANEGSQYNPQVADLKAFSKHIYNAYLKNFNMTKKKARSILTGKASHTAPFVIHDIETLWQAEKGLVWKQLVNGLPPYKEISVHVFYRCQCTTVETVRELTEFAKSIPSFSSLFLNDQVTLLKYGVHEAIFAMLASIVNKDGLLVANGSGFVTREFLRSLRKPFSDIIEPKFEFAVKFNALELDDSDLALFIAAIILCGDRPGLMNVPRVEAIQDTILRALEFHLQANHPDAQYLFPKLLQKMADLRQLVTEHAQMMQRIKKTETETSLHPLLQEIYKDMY
Description: as §1, §2, §3, §4, §5

human PPARα = target: T3, human PPARα (Homo sapiens, UniProt Q07869); test: Gal4-human PPARα chimera luciferase transfection assay in COS cells
T3 construct: 166th to 467th amino acids of human PPARα; expressed in transfected cells; host or cells: COS cells (African green monkey kidney)
T3 sequence (Q07869 166-467): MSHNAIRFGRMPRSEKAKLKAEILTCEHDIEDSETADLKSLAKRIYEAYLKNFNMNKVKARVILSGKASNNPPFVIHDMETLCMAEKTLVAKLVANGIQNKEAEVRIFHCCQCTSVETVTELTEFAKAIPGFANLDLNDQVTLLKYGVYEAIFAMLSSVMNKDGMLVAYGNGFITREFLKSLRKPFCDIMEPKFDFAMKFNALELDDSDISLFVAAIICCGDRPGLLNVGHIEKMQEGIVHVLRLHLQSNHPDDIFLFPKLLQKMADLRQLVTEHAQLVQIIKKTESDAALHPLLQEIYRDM
Description: as §1, §2, §3, §4, §5

[1] = compound added at 1 μM, luciferase activity with WY14643 10 μM given as 10.0, 16 hours

Row | SMILES | hPPAR; Relative activity γ (human PPARγ2) | hPPAR; Relative activity δ (human PPARδ) | hPPAR; Relative activity α (human PPARα; [1]) | hPPAR; Relative activity α (human PPARα; positive compound at 10 μM, its luciferase activity given as 10.0, 16 hours)
1 | O=C(O)c1cccc(OCCCN(CCOc2ccc(Cl)cc2)c2nc3ccccc3o2)c1 [Example 6, 3-[3-[N-(Benzoxazol-2-yl)-N-2-(4-chlorophenoxy)ethyl]aminopropoxy]benzoic acid] | 1.2 | 0.3 | 17.3 | –
2 | CCCCCCCCN(CCOc1ccccc1C(=O)O)c1nc2ccccc2o1 [Example 13, 2-[2-[N-(Benzoxazol-2-yl)-N-n-octyl]aminoethoxy]benzoic acid] | 6.2 | 0.1 | 15.2 | –
3 | CCCCCCCN(CCCOc1cccc(C(=O)O)c1)c1nc2ccccc2o1 [Example 19, 3-[3-[N-(Benzoxazol-2-yl)-N-n-heptyl]aminopropoxy]benzoic acid] | 1.7 | 0.5 | 15.1 | –
4 | CCCCCCCCN(CCCOc1cccc(C(=O)O)c1)c1nc2ccccc2o1 [Example 20, 3-[3-[N-(Benzoxazol-2-yl)-N-n-octyl]aminopropoxy]benzoic acid] | 1.5 | 0.2 | 21.7 | –
5 | CCCCCCCCN(CCCOc1ccccc1C(=O)O)c1nc2ccccc2o1 [Example 27, 2-[3-[N-(Benzoxazol-2-yl)-N-n-octyl]aminopropoxy]benzoic acid] | 1.9 | 0.1 | 13.7 | –
6 | O=C(O)c1cccc(OCCCCN(CCOc2ccc(Cl)cc2)c2nc3ccccc3o2)c1 [Example 45, 3-[4-[N-(Benzoxazol-2-yl)-N-2-(4-chloropheoxyl)ethyl]aminobutoxy]benzoic acid] | 3.5 | 0.6 | 12.3 | –
7 | CCCCCCCN(CCCCOc1cccc(C(=O)O)c1)c1nc2ccccc2o1 [Example 46, 3-[4-[N-(Benzoxazol-2-yl)-N-n-heptyl]aminobutoxy]benzoic acid] | 1.9 | 0.3 | 16.5 | –
8 | CCCCCN(CCCCOc1cccc(C(=O)O)c1)c1nc2ccccc2o1 [Example 47, 3-[4-[N-(Benzoxazol-2-yl)-N-n-pentyl]aminobutoxy]benzoic acid] | 1.2 | 0.3 | 10.4 | –
9 | O=C(O)c1cccc(OCCCCN(CCCOc2ccccc2)c2nc3ccccc3o2)c1 [Example 48, 3-[4-[N-(Benzoxazol-2-yl)-N-3-phenoxypropyl]aminobutoxy]benzoic acid] | 2.1 | 0.2 | 16.0 | –
10 | CCCCCCCCN(CCCCOc1ccccc1C(=O)O)c1nc2ccccc2o1 [Example 50, 2-[4-[N-(Benzoxazol-2-yl)-N-n-octyl]aminobutoxy]benzoic acid] | 2.9 | 0.1 | 13.3 | –
11 | O=C(O)c1ccccc1OCCCCN(CCOc1ccccc1)c1nc2ccccc2o1 [Example 52, 2-[4-[N-(Benzoxazol-2-yl)-N-2-phenoxyethyl]aminobutoxy]benzoic acid] | 2.1 | 0.1 | 13.8 | –
12 | O=C(O)c1ccccc1OCCCCN(CCCOc1ccccc1)c1nc2ccccc2o1 [Example 53, 2-[4-[N-(Benzoxazol-2-yl)-N-3-phenoxypropyl]aminobutoxy]benzoic acid] | 3.5 | 0.1 | 16.0 | –
13 | CCCCCCN(CCCCOc1ccc(C(=O)O)cc1)c1nc2ccccc2o1 [Example 60, 4-[4-[N-(Benzoxazol-2-yl)-N-n-hexyl]aminobutoxy]benzoic acid] | 1.8 | 0.1 | 11.9 | –
14 | CC(C)N(CCCCCSc1ccccc1C(=O)O)c1nc2ccccc2o1 [Example 70, 2-[5-[N-(Benzoxazol-2-yl)-N-isopropyl]aminopentylthio]benzoic acid] | 1.4 | 0.2 | 12.4 | –
15 | CCCCN(CCCCCSc1ccccc1C(=O)O)c1nc2ccccc2o1 [Example 71, 2-[5-[N-(Benzoxazol-2-yl)-N-n-butyl]aminopentylthio]benzoic acid] | 2.0 | 0.5 | 11.0 | –
16 | CCCCCN(CCCCCSc1ccccc1C(=O)O)c1nc2ccccc2o1 [Example 72, 2-[5-[N-(Benzoxazol-2-yl)-N-n-pentyl]aminopentylthio]benzoic acid] | 1.7 | 0.6 | 13.5 | –
17 | Cc1c(CN(CCSc2ccccc2C(=O)O)c2nc3ccccc3o2)cccc1[N+](=O)[O-] [Example 73, 2-[2-[N-(Benzoxazol-2-yl)-N-(2-methyl-3-nitrobenzyl) ]aminoethylthio]benzoic acid] | 1.1 | 0.2 | 11.2 | –
18 | O=C(O)c1ccccc1SCCN(Cc1ccccc1[N+](=O)[O-])c1nc2ccccc2o1 [Example 74, 2-[2-[N-(Benzoxazol-2-yl)-N-2-nitrobenzyl]aminoethylthio]benzoic acid] | 0.7 | 0.3 | 10.2 | –
19 | CCCCCCCN(CCSc1ccccc1C(=O)O)c1nc2ccccc2o1 [Example 77, 2-[2-[N-(Benzoxazol-2-yl)-N-n-heptyl]aminoethylthio]benzoic acid] | 2.0 | 0.2 | 18.9 | –
20 | CCCCCCCCN(CCSc1ccccc1C(=O)O)c1nc2ccccc2o1 [Example 78, 2-[2-[N-(Benzoxazol-2-yl)-N-n-octyl]aminoethylthio]benzoic acid] | 2.1 | 0.2 | 20.8 | –
21 | O=C(O)c1ccccc1SCCN(CCCc1ccccc1)c1nc2ccccc2o1 [Example 79, 2-[2-[N-(Benzoxazol-2-yl)-N-3-phenylpropyl]aminoethylthio]benzoic acid] | 1.1 | 0.2 | 13.3 | –
22 | O=C(O)c1ccccc1SCCN(CCCOc1ccccc1)c1nc2ccccc2o1 [Example 80, 2-[2-[N-(Benzoxazol-2-yl)-N-3-phenoxypropyl]aminoethylthio]benzoic acid] | 1.6 | 0.2 | 17.8 | –
23 | Cc1cccc(Nc2cc(Cl)nc(SCC(=O)O)n2)c1C [WY14643, reference compound] | – | – | – | 10.0
